Tests used:
[1] = Part A: PK of single-dose fruquintinib alone and with itraconazole (CYP3A inhibition); format: in vivo, human; settings: for AUC(0-inf) / AUC(0-t) / Tmax / Cmax / half-life / t1/2: fruquintinib in plasma; for AUC(0-inf) / AUC(0-t) / Tmax / Cmax / half-life / t1/2 / CL/F (apparent oral clearance): Part A, n = 14; for AUC(0-inf) / AUC(0-t) / Cmax / half-life / t1/2 / CL/F (apparent oral clearance): arithmetic mean (SD); for Tmax: median (minimum‐maximum); for half-life: plasma; for CL/F (apparent oral clearance): fruquintinib
Text: (§1) This was a single‐center, open‐label, 2‐part (Part A and Part B), 2‐period, fixed‐sequence study conducted in healthy male and female subjects. Parts A and B evaluated the effect of the CYP3A inhibitor itraconazole and the CYP3A inducer rifampin on the PK profile of fruquintinib, respectively. Each part consisted of a screening phase, a treatment phase (Period 1 and Period 2), and an end‐of‐study (EOS) phase. Screening occurred within 21 days before the first study drug administration. There was at least a 14‐day washout of fruquintinib between treatment periods. PK samples were collected before dosing and over 168 hours following the fruquintinib dose in Part A (with itraconazole) and Part B (with rifampin). Part A and Part B were enrolled independently.
In Part A, subjects were administered fruquintinib alone in Treatment Period 1 and in combination with itraconazole in Treatment Period 2. Study Day 1 was considered the start of Treatment Period 1, and Study Day 15 was considered the start of Treatment Period 2. On Study Day 1, subjects received a single dose of fruquintinib 5 mg by mouth under fasted conditions (subjects fasted for at least 10 hours before fruquintinib dosing and 4 hours after), and on Study Day 19 subjects received a second single dose of fruquintinib 5 mg by mouth under fasted conditions, alongside itraconazole. On Study Day 15, subjects began a regimen of itraconazole 200 mg by mouth twice a day, followed by once daily dosing on Study Days 16‐25. A dose of 200 mg was selected, with a loading dose as part of a 5‐day lead‐in (twice daily for 1 day, once daily for 4 days) to achieve appropriate inhibition of CYP3A before dosing with fruquintinib.[10] Once‐daily dosing of itraconazole for an additional 5 days throughout the fruquintinib PK sampling period was continued to maintain CYP3A inhibition.[11]
As itraconazole oral bioavailability is maximal when the capsules are taken immediately after a full meal,[12] it was administered under fed conditions except when coadministered with fruquintinib on Study Day 19. Itraconazole doses were administered 30 minutes after the start of breakfast on Study Days 15‐18 and Study Days 20‐25. On Study Day 19, subjects received both treatments under fasted conditions, and itraconazole was administered 1 hour before administration of a single dose of fruquintinib 5 mg by mouth. Subjects were discharged after completion of EOS procedures on Study Day 26 or at early withdrawal.
(§2) Blood samples for determination of fruquintinib and metabolite M11 plasma concentrations were collected before dosing and at 0.5, 1, 1.5, 2, 3, 4, 6, 8, 12, 24, 36, 48, 72, 96, 120, 144, and 168 hours after fruquintinib dosing. Plasma samples were analyzed by LabCorp Bioanalytical (Indianapolis, IN) using a validated liquid chromatography with tandem mass spectrometry assay method with an analytical range of 1.00 ng/mL (lower limit of quantitation) to 750 ng/mL (upper limit of quantitation) for both fruquintinib and M11.[6] Interrun variability was 6.3% or less and 13.8% or less for fruquintinib and M11, respectively. Quality control samples at 4 concentrations (3, 30, 300, and 600 ng/mL) were assayed along with study samples, and the bias quality control sample concentrations deviated by ±2.0% and ±2.7% from the nominal concentrations for fruquintinib and M11, respectively.
PK parameters were determined by noncompartmental analysis and included maximum plasma concentration (Cmax); time to reach Cmax (tmax); area under the plasma concentration‐time curve (AUC) from time 0 to the time of the last measurable concentration (AUC0‐t); AUC from time 0 to infinity (AUC0‐inf); half‐life (t1/2); and the metabolite‐to‐parent ratios for Cmax, AUC0‐t, and AUC0‐inf. Apparent oral clearance and volume of distribution were also estimated for fruquintinib. […]

[2] = Part B: PK of single-dose fruquintinib alone and with rifampin (CYP3A induction); format: in vivo, human; settings: for AUC(0-inf) / AUC(0-t) / Cmax / half-life / Tmax / t1/2: fruquintinib in plasma; for AUC(0-inf) / AUC(0-t) / Cmax / half-life / Tmax / t1/2 / CL/F (apparent oral clearance): Part B; for AUC(0-inf) / AUC(0-t) / Cmax / half-life / t1/2 / CL/F (apparent oral clearance): arithmetic mean (SD); for half-life / Tmax: plasma; for Tmax: median (minimum‐maximum), read-out: tmax; for CL/F (apparent oral clearance): fruquintinib
Text: as §1
In Part B, subjects were administered fruquintinib alone in Treatment Period 1 and in combination with rifampin in Treatment Period 2. Study Day 1 was considered as the start of Treatment Period 1, and Study Day 8 was considered as the start of Treatment Period 2. On Study Day 1, a single dose of fruquintinib 5 mg by mouth was administered under fasted conditions, and on Study Day 15, a single dose of fruquintinib 5 mg was administered by mouth under fasted conditions alongside rifampin. Starting on Study Day 8, rifampin 600 mg was dosed by mouth once daily for 14 consecutive days, 7 days before fruquintinib dosing and 6 days after fruquintinib dosing, to ensure that induction was maintained throughout the PK sampling period. Subjects therefore received rifampin from Study Day 8 to Study Day 21. Absorption of rifampin is reduced by approximately 30% when the drug is ingested with food.[13] Therefore, rifampin was administered at least 1 hour before breakfast when given alone and under fasted conditions when administered with fruquintinib. Breakfast was given at least 1 hour after the rifampin doses on Study Days 8‐14 and Study Days 16‐21. On Study Day 15, subjects received both treatments under fasted conditions, and rifampin was administered 1hour before administration of a single dose of fruquintinib 5 mg by mouth. Subjects were discharged after completion of EOS procedures on Study Day 22 or at early withdrawal.
as §2
PK parameters were determined by noncompartmental analysis and included maximum plasma concentration (Cmax); time to reach Cmax (tmax); area under the plasma concentration‐time curve (AUC) from time 0 to the time of the last measurable concentration (AUC0‐t); AUC from time 0 to infinity (AUC0‐inf); half‐life (t1/2); and the metabolite‐to‐parent ratios for Cmax, AUC0‐t, and AUC0‐inf. Apparent oral clearance and volume of distribution were also estimated for fruquintinib.
For Part A, the effect of itraconazole based on the PK parameters of fruquintinib was evaluated using a linear mixed‐effect model with treatment (ie, fruquintinib with itraconazole [test] and fruquintinib alone [reference]) as fixed effects and subject as a random effect. A similar inferential analysis was performed for Part B, but fruquintinib with rifampin was the test group. […]

[3] = test system: P‐gp; settings: no reference given; cited from earlier work
[4] = both sexes, human, oral, fruquintinib 5 mg + itraconazole 200 mg
[5] = both sexes, human, oral, fruquintinib alone 5 mg
[6] = fruquintinib 5 mg + itraconazole 200 mg
[7] = both sexes, human, oral, fruquintinib 5 mg + rifampin 600 mg, n = 13
[8] = both sexes, human, oral, fruquintinib alone 5 mg, n = 13
[9] = fruquintinib 5 mg + rifampin 600 mg, n = 13
[10] = fruquintinib alone 5 mg, n = 13

CNC(=O)c1c(C)oc2cc(Oc3ncnc4cc(OC)c(OC)cc34)ccc12 [Fruquintinib] showed an AUC(0-inf) [1, 4] of 6460 ng·h/mL, an AUC(0-t) [1, 4] of 6040 ng·h/mL and a Tmax [1, 4] of 4 h. The AUC(0-inf) [1, 5] was 5960 ng·h/mL, the AUC(0-t) [1, 5] was 5730 ng·h/mL and the Tmax [1, 5] was 2 h. The Cmax ([1]; both sexes, human, oral, fruquintinib alone, single 5 mg by mouth, fasted, read-out: Cmax) was 133 ng/mL, the half-life ([1]; both sexes, human, oral, 5 mg, fruquintinib alone 5 mg) was roughly 2040 min and the half-life [1, 4] was roughly 2460 min. For the same compound, the “increase of fruquintinib AUCs” value ([1]; coadministration with itraconazole versus fruquintinib alone) was “approximately 10%”, the “delay of median tmax of fruquintinib” value ([1]; following coadministration of itraconazole) was 2 h and the Cmax [1, 6] was 122 (22.8) ng/mL. The t1/2 [1, 6] was 41.4 (5.96) hour, the t1/2 ([1]; fruquintinib alone 5 mg) was 33.9 (6.96) hour and the “CL/F (apparent oral clearance)” value [1, 6] was 13.3 (2.59) mL/min. The “CL/F (apparent oral clearance)” value ([1]; fruquintinib alone 5 mg) was 14.9 (4.14) mL/min, the AUC(0-inf) [2, 7] was 2070 ng·h/mL and the AUC(0-t) [2, 7] was 2020 ng·h/mL. For the same compound, the Cmax ([2]; both sexes, human, oral, fruquintinib 5 mg + rifampin 600 mg, n = 13, read-out: Cmax) was 108 ng/mL, the AUC(0-inf) [2, 8] was 5890 ng·h/mL and the AUC(0-t) [2, 8] was 5640 ng·h/mL. It also gave a half-life ([2]; both sexes, human, oral, 5 mg, fruquintinib alone 5 mg, n = 13) of roughly 2040 min, a Tmax ([2]; both sexes, human, oral, 5 mg, fruquintinib alone 5 mg, n = 14) of 3.33 h and a half-life [2, 7] of roughly 840 min. The Tmax [2, 7] was 3 h, the “reduction of fruquintinib AUCs (AUC0‐t and AUC0‐inf)” value ([2]; coadministration with rifampin versus fruquintinib alone) was 65% and the t1/2 [2, 9] was 14.0 (3.06) hour. For the same compound, the t1/2 [2, 10] was 33.9 (7.76) hour, the Cmax ([2]; fruquintinib alone, single 5 mg by mouth, fasted, n = 14) was 123 (25.5) ng/mL and the “CL/F (apparent oral clearance)” value [2, 9] was 41.9 (7.46) mL/min. The “CL/F (apparent oral clearance)” value [2, 10] was 14.5 (2.22) mL/min and the “P‐gp substrate” value [3] was “not a P‐gp substrate”.
